From patent US8530648B2, “Diaza-spiro[5.5]undecanes” (Novartis AG, priority 2009, dated 2013)

Assays:
hOx1R = hOx1R (Homo sapiens (Human), UniProt O43613); test: Calcium accumulation in cells (FLIPR), hOx1R; type: cell-based; settings: for Ki: inhibition of orexin A induced calcium accumulation, Cheng and Prusoff correction; for inhibition at 10 µM: measured at a concentration of 10 μM of compound
Procedure: (§1) Calcium Accumulation in Cells (FLIPR):
(§2) Cells expressing human orexin 1 or human orexin 2 receptors, were seeded at 8,000 cells/well in 384 well black-walled clear bottom, poly-D-lysine coated plates. After 24 h, the medium was removed and cells were washed once with phosphate buffered saline and serum-deprived overnight in assay buffer (130 mM NaCl, 5.4 mM KCl, 1.8 mM CaCl2, 0.8 mM MgSO4, 0.9 mM NaH2PO4, 25 mM glucose, 20 mM HEPES, pH 7.4) containing bovine serum albumin (1% w/v).
(§3) On the day of the experiment, the cells seeded in black plates were treated with assay buffer containing the Ca^2+ sensitive fluorescent dye Fluo-4-AM (2 μM), and probenecid (0.1 mM). After 1 h plates were washed twice with, and resuspended in, assay buffer containing probenecid (0.1 mM) using a multi plate washer. […] Fluorescence measurements were then continued every 1 S for 120 S followed by every 4 S for 240 S.
(§4) The measurements were typically made in two sequences:
(§5) Compounds of formula I were tested usually in a concentration range from 10^−9 M to 10^−5 M.
(§6) In the second round, performed one hour later (to allow for equilibration), Orexin A was tested either in the absence (calibration curves, Orexin A agonist controls) or in the presence of compounds of formula I to determine antagonism.

hOx2R = hOx2R (Homo sapiens (Human), UniProt O43614); test: Calcium accumulation in cells (FLIPR), hOx2R; type: cell-based; settings: for Ki: inhibition of orexin A induced calcium accumulation, Cheng and Prusoff correction; for inhibition at 10 µM: measured at a concentration of 10 μM of compound
Chain of hOx2R (O43614 whole entry): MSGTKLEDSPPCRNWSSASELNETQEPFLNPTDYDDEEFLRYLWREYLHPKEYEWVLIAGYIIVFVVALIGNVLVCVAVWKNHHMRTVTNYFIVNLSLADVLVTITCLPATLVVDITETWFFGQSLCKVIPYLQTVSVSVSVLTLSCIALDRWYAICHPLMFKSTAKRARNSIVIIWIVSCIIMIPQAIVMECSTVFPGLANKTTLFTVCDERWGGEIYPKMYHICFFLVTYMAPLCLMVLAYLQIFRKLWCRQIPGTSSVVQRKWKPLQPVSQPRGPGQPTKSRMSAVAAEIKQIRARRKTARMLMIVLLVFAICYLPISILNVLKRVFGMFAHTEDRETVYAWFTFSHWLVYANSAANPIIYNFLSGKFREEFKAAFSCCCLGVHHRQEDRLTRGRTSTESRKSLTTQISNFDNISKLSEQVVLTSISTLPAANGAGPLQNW
Procedure: as §1, §2, §3, §4, §5, §6

Chain of hOx1R (O43613 whole entry): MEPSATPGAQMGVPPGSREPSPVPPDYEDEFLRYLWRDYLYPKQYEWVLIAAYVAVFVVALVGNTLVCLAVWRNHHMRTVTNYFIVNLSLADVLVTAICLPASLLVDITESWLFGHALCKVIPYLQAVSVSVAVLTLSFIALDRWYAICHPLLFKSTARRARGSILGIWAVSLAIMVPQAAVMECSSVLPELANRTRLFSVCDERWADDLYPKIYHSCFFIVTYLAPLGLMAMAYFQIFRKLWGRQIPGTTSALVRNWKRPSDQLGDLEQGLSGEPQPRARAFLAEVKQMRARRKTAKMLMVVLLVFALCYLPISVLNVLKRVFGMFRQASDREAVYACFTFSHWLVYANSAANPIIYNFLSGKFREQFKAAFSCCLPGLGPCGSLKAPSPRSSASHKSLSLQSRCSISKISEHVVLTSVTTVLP

Structure (SMILES)	Ki (hOx1R) [nM]	Ki (hOx2R) [nM]	inhibition at 10 µM (hOx1R) [%]	inhibition at 10 µM (hOx2R) [%]
Cc1[nH]c2ccccc2c1CN1CCCC2(CCN(c3cnc4ccccc4n3)CC2)C1=O [Example 133, 2-((2-methyl-1H-indol-3-yl)methyl)-9-(quinoxalin-2-yl)-2,9-diazaspiro[5.5]undecan-1-one]	1150	244		
O=C1N(Cc2cc3ccccc3[nH]2)CCCC12CCN(c1cnc3ccccc3n1)CC2 [Example 121, 2-((1H-indol-2-yl)methyl)-9-(quinoxalin-2-yl)-2,9-diazaspiro[5.5]undecan-1-one]	2530	1660		
Cn1nccc1-c1ccccc1CN1CCCC2(CCN(c3cnc4ccccc4n3)CC2)C1=O [Example 148, 2-(2-(1-methyl-1H-pyrazol-5-yl)benzyl)-9-(quinoxalin-2-yl)-2,9-diazaspiro[5.5]undecan-1-one]			30	32
O=C1N(Cc2ccccc2-c2ncccn2)CCCC12CCN(c1cnc3ccccc3n1)CC2 [Example 151, 2-(2-(pyrimidin-2-yl)benzyl)-9-(quinoxalin-2-yl)-2,9-diazaspiro[5.5]undecan-1-one]		675	14	
Cc1cccc(CN2CCCC3(CCN(c4cnc5ccccc5n4)CC3)C2=O)n1 [Example 97, 2-((6-methylpyridin-2-yl)methyl)-9-(quinoxalin-2-yl)-2,9-diazaspiro[5.5]undecan-1-one]			14	33
Cc1noc(-c2ccccc2)c1CN1CCCC2(CCN(c3cnc4ccccc4n3)CC2)C1=O [Example 32, 2-((3-methyl-5-phenylisoxazol-4-yl)methyl)-9-(quinoxalin-2-yl)-2,9-diazaspiro[5.5]undecan-1-one]	1280	138		
O=C1N(Cc2cc(-n3cccn3)ccn2)CCCC12CCN(c1cnc3ccccc3n1)CC2 [Example 127, 2-((4-(1H-pyrazol-1-yl)pyridin-2-yl)methyl)-9-(quinoxalin-2-yl)-2,9-diazaspiro[5.5]undecan-1-one]	2340	299		
Cn1nc2ccccc2c1CN1CCCC2(CCN(c3cnc4ccccc4n3)CC2)C1=O [Example 76, 2-((2-methyl-2H-indazol-3-yl)methyl)-9-(quinoxalin-2-yl)-2,9-diazaspiro[5.5]undecan-1-one]		559	44	
O=C1N(Cc2ccc(-c3ncccn3)cc2)CCCC12CCN(c1cnc3ccccc3n1)CC2 [Example 101, 2-(4-(pyrimidin-2-yl)benzyl)-9-(quinoxalin-2-yl)-2,9-diazaspiro[5.5]undecan-1-one]	2790	1380		
Cc1ncc(CN2CCCC3(CCN(c4cnc5ccccc5n4)CC3)C2=O)c2c1OC(C)(C)OC2 [Example 117, 9-(quinoxalin-2-yl)-2-((2,2,8-trimethyl-4H-[1,3]dioxino[4,5-c]pyridin-5-yl)methyl)-2,9-diazaspiro[5.5]undecan-1-one]	2380	249		
Cc1nc(-c2ccccc2)oc1CN1CCCC2(CCN(c3cnc4ccccc4n3)CC2)C1=O [Example 119, 2-((4-methyl-2-phenyloxazol-5-yl)methyl)-9-(quinoxalin-2-yl)-2,9-diazaspiro[5.5]undecan-1-one]	1900	291		
CC(c1c[nH]c2ccccc12)N1CCCC2(CCN(c3cnc4ccccc4n3)CC2)C1=O (stereo not drawn) [Example 74, 2-(1-(1H-indol-3-yl)ethyl)-9-(quinoxalin-2-yl)-2,9-diazaspiro[5.5]undecan-1-one]	675	185		
O=C1N(Cc2cccnc2)CCCC12CCN(c1cnc3ccccc3n1)CC2 [Example 64, 2-(pyridin-3-ylmethyl)-9-(quinoxalin-2-yl)-2,9-diazaspiro[5.5]undecan-1-one]		718	32	
Cn1ncc2c(CN3CCCC4(CCN(c5cnc6ccccc6n5)CC4)C3=O)cccc21 [Example 108, 2-((1-methyl-1H-indazol-4-yl)methyl)-9-(quinoxalin-2-yl)-2,9-diazaspiro[5.5]undecan-1-one]	1400	196		
Cc1ccccc1CN1CCCC2(CCN(c3cnc4ccccc4n3)CC2)C1=O [Example 19, 2-(2-methylbenzyl)-9-(quinoxalin-2-yl)-2,9-diazaspiro[5.5]undecan-1-one]		495	12	
CN1CCc2c(CN3CCCC4(CCN(c5cnc6ccccc6n5)CC4)C3=O)cccc21 [Example 145, 2-((1-methylindolin-4-yl)methyl)-9-(quinoxalin-2-yl)-2,9-diazaspiro[5.5]undecan-1-one]		636		
O=C1N(Cc2cncn2Cc2ccccc2)CCCC12CCN(c1cnc3ccccc3n1)CC2 [Example 118, 2-((1-benzyl-1H-imidazol-5-yl)methyl)-9-(quinoxalin-2-yl)-2,9-diazaspiro[5.5]undecan-1-one]	1840	197		
Cc1cc(CN2CCCC3(CCN(c4cnc5ccccc5n4)CC3)C2=O)c2ccccc2n1 [Example 33, 2-((2-methylquinolin-4-yl)methyl)-9-(quinoxalin-2-yl)-2,9-diazaspiro[5.5]undecan-1-one]	2360	282		

Continued, values first:

Ki (hOx1R) [nM]	Ki (hOx2R) [nM]	inhibition at 10 µM (hOx1R) [%]	inhibition at 10 µM (hOx2R) [%]	Structure (SMILES)
1100	142			N#Cc1ccc(F)c(CN2CCCC3(CCN(c4cnc5ccccc5n4)CC3)C2=O)c1 [Example 99, 4-fluoro-3-((1-oxo-9-(quinoxalin-2-yl)-2,9-diazaspiro[5.5]undecan-2-yl)methyl)benzonitrile]
	830	29		Cc1cc(CN2CCCC3(CCN(c4cnc5ccccc5n4)CC3)C2=O)ccn1 [Example 68, 2-((2-methylpyridin-4-yl)methyl)-9-(quinoxalin-2-yl)-2,9-diazaspiro[5.5]undecan-1-one]
1980	404			O=C1CCCC2(CCN(c3cnc4ccccc4n3)CC2)N1Cc1c[nH]c2ncccc12 [Example 141, 1-((1H-pyrrolo[2,3-b]pyridin-3-yl)methyl)-9-(quinoxalin-2-yl)-1,9-diazaspiro[5.5]undecan-2-one]
2150	232			O=C1N(Cc2cnn3ccccc23)CCCC12CCN(c1cnc3ccccc3n1)CC2 [Example 79, 2-(pyrazolo[1,5-a]pyridin-3-ylmethyl)-9-(quinoxalin-2-yl)-2,9-diazaspiro[5.5]undecan-1-one]
		29	24	O=C1N(Cc2noc(C3CCC3)n2)CCCC12CCN(c1cnc3ccccc3n1)CC2 [Example 89, 2-((5-cyclobutyl-1,2,4-oxadiazol-3-yl)methyl)-9-(quinoxalin-2-yl)-2,9-diazaspiro[5.5]undecan-1-one]
	782	3		COc1cccc(CN2CCCC3(CCN(c4cnc5ccccc5n4)CC3)C2=O)c1OC [Example 18, 2-(2,3-dimethoxybenzyl)-9-(quinoxalin-2-yl)-2,9-diazaspiro[5.5]undecan-1-one]
		22	35	O=C1N(Cc2nnc3ccccn23)CCCC12CCN(c1cnc3ccccc3n1)CC2 [Example 75, 2-([1,2,4]triazolo[4,3-a]pyridin-3-ylmethyl)-9-(quinoxalin-2-yl)-2,9-diazaspiro[5.5]undecan-1-one]
1810	535			Cc1nc2ccccc2nc1N1CCC2(CCCN(Cc3c[nH]c4ccccc34)C2=O)CC1 [Example 170, 2-((1H-indol-3-yl)methyl)-9-(3-methylquinoxalin-2-yl)-2,9-diazaspiro[5.5]undecan-1-one]
1360	178			O=C1N(Cc2c[nH]c3ccccc23)CCCC12CCN(c1nc3ccccc3s1)CC2 [Example 52, 2-((1H-indol-3-yl)methyl)-9-(benzo[d]thiazol-2-yl)-2,9-diazaspiro[5.5]undecan-1-one]
1250	267			O=C1N(Cc2cccc3c2CCN3)CCCC12CCN(c1cnc3ccccc3n1)CC2 [Example 126, 2-(indolin-4-ylmethyl)-9-(quinoxalin-2-yl)-2,9-diazaspiro[5.5]undecan-1-one]
	1360	35		Cc1cc(C)nc(CN2CCCC3(CCN(c4cnc5ccccc5n4)CC3)C2=O)c1 [Example 106, 2-((4,6-dimethylpyridin-2-yl)methyl)-9-(quinoxalin-2-yl)-2,9-diazaspiro[5.5]undecan-1-one]
2160	466			Cc1nc2ccccn2c1CN1CCCC2(CCN(c3cnc4ccccc4n3)CC2)C1=O [Example 71, 2-((2-methylimidazo[1,2-a]pyridin-3-yl)methyl)-9-(quinoxalin-2-yl)-2,9-diazaspiro[5.5]undecan-1-one]
		14	20	O=C1N(Cc2c[nH]c3ccccc23)CCCC12CCN(c1nc(-c3ccc(F)cc3)cs1)CC2 [Example 172, 2-((1H-indol-3-yl)methyl)-9-(4-(4-fluorophenyl)thiazol-2-yl)-2,9-diazaspiro[5.5]undecan-1-one]
541	105			O=C1CCCC2(CCN(c3nc4ccc(Cl)cc4o3)CC2)N1Cc1cccc2[nH]ccc12 [Example 139, 1-((1H-indol-4-yl)methyl)-9-(6-chlorobenzo[d]oxazol-2-yl)-1,9-diazaspiro[5.5]undecan-2-one]
